± gives the expanded uncertainty stated by the source.
Test: wn = mass fraction of the nth substance listed
Conditions: 100 kPa, Liquid, Concentric cylinders viscometry

NCCO [2-aminoethan-1-ol] + O
viscosity [mPa·s]
Conditions | 298.2 K | 303.2 K | 313.2 K | 323.2 K
w1 = 0.2 | 1.72 ± 0.17 | 1.53 ± 0.15 | 1.18 ± 0.12 | 0.98 ± 0.1
w1 = 0.2499 | 2.02 ± 0.2 | 1.79 ± 0.18 | 1.32 ± 0.13 | 1.12 ± 0.11
w1 = 0.3001 | 2.32 ± 0.23 | 2.13 ± 0.21 | 1.59 ± 0.16 | 1.31 ± 0.13

CN(CCO)CCO [N-methyldiethanolamine] + O
viscosity [mPa·s]
Conditions | 298.2 K | 303.2 K | 313.2 K | 323.2 K
w1 = 0.3502 | 4.07 ± 0.41 | 3.36 ± 0.34 | 2.56 ± 0.26 | 2.02 ± 0.2
w1 = 0.4001 | 5.2 ± 0.52 | 4.41 ± 0.44 | 3.02 ± 0.3 | 2.65 ± 0.27
w1 = 0.45 | 7.62 ± 0.77 | 6.1 ± 0.61 | 4.37 ± 0.44 | 3.63 ± 0.36

OCCNCCO [diethanolamine] + O
viscosity [mPa·s]
Conditions | 298.2 K | 303.2 K | 313.2 K | 323.2 K
w1 = 0.2001 | 1.92 ± 0.19 | 1.67 ± 0.17 | 1.32 ± 0.13 | 1.05 ± 0.11
w1 = 0.25 | 2.61 ± 0.26 | 2.16 ± 0.22 | 1.67 ± 0.17 | 1.34 ± 0.13
w1 = 0.3001 | 3.26 ± 0.33 | 2.57 ± 0.26 | 1.99 ± 0.2 | 1.41 ± 0.14
